Here are results for four compounds from patent US8450348B2, “Derivatives of squaric acid with anti-proliferative activity” (Forma TM, LLC, priority 2007, dated 2013).

Bounds are passed on as bounds.

Assay type in all cases: cell-based
In assay [1] the test system is A2780. In words: SRB assay, % inhibition of tumor cell growth (Example 61). Particulars: Homo sapiens, 48 hours, vs DMSO-treated cells. The method, then: (§1) 3,000-15,000 cells/well were exposed to the test compounds at a concentration of 1 μM for 48 hours, and cytotoxicity was measured using the SRB assay according to Shekan et al (J Natl Cancer Inst (1990) 82, 1107-112). Briefly, cells were plated in 96 well dishes 24 hours prior to compound addition. The assay was terminated with the addition of cold TCA to a final concentration of 10% and the plates were incubated for one hour at 4° C. The plates were then washed 5 times with water and 100 μl of a Sulforhodamine B solution ([…]) was added to each well. The plate was then incubated for 10 minutes at room temperature before removal of unbound dye by washing with 1% acetic acid. The bound dye was solubilized with 10 mM Trizma base and the absorbance read at OD570. Inhibitory activity of the compounds was calculated as % inhibition compared to cells treated with the solvent (DMSO). Table 2 represents the growth inhibitory activity of certain compounds of the invention across a number of tumor cell lines.
A general note: The SRB assay estimates cell density from bound dye.

Assay [2] has as its system HCT-116. The description is as above. To be noted: Homo sapiens, 48 hours, vs DMSO-treated cells. On the procedure: as §1
Assay [3] has as its system MCF7. The assay is described as above. To be noted: Homo sapiens, 48 hours, vs DMSO-treated cells. The method, then:
as §1

The subject of the next assay is PC-3. Described as above. Particulars: Homo sapiens, 48 hours, vs DMSO-treated cells. On the procedure: as §1
The subject of assay [4] is SW-620. The description is as above. Particulars: Homo sapiens, 48 hours, vs DMSO-treated cells. On the procedure:
as §1

Assay [5] has as its system HCT-116. The experiment in a line: IC50 determination, SRB assay (Example 62). Particulars: Homo sapiens, estimated from fitted curve, growth inhibition. On the procedure:
as §1
(§2) The assay was performed similar to example 61. However, test compounds were added at various concentrations, such as from 0.001 to about 0.1 μM, from 0.1 to about 10 μM, or from 1 to about 10 μM, as the need may be, in order to estimate the IC50 values. IC50 values were determined by plotting the percentage inhibitory activity for each concentration, fitting a curve using appropriate software and estimating the concentration at which 50% inhibition of growth would occur.

Assay [6] relates to MCF7. In words: IC50 determination, SRB assay (Example 62). To be noted: Homo sapiens, estimated from fitted curve, growth inhibition. On the procedure:
as §1, §2

Assay [7] relates to SW-620. In words: IC50 determination, SRB assay (Example 62). Particulars: Homo sapiens, estimated from fitted curve, growth inhibition. The method, then: as §1, §2
Assay [8] concerns A2780. In words: IC50 determination, SRB assay (Example 62). To be noted: Homo sapiens, estimated from fitted curve, growth inhibition. The method, then: as §1, §2
The test system of a further assay is A-549. The experiment in a line: SRB assay, % inhibition of tumor cell growth (Example 61). Particulars: Homo sapiens, A549, 48 hours, vs DMSO-treated cells. On the procedure:
as §1

The inhibition is the relative decrease from the control value, in per cent. The term IC50 denotes the concentration that gives 50% inhibition. Turning to `O=c1c(NCCc2ccc(Oc3ccccc3)cc2)c(Nc2cccnc2)c1=O` [SQ-5, 3-[2-(4-Phenoxyphenyl)-ethylamino]-4-(pyridin-3-yl-amino)-cyclobut-3-ene-1,2-dione], the inhibition at 1 µM is greater than 80% in the assay with A2780 [1]; greater than 80% in the assay on HCT-116 [2]; greater than 50% with MCF7 [3]; greater than 50% with PC-3; 0% in the assay on SW-620 [4]. Moreover, the IC50 with HCT-116 [5] was less than 0.1 µM; in the assay with MCF7 [6] it was less than 10 µM; with SW-620 [7] it was less than 2 µM.
Regarding `O=c1c(NCCCCCCOc2ccc(Cl)cc2)c(Nc2ccncc2)c1=O` [SQ-7B], the inhibition at 1 µM in the assay on A2780 [1] is greater than 80%; in the assay on HCT-116 [2], greater than 80%; in the assay on PC-3, greater than 50%; with SW-620 [4] it was greater than 50%. Moreover, the IC50 with A2780 [8], in the assay on HCT-116 [5] and in the assay on MCF7 [6] was less than 0.1 µM in each case.
As to `O=c1c(NCCCCCCOc2ccc(Cl)c(Cl)c2)c(Nc2ccncc2)c1=O` [SQ-15], the inhibition at 1 µM in the assay on A-549 was greater than 20%; in the assay with A2780 [1], greater than 80%; with HCT-116 [2], greater than 80%; in the assay with MCF7 [3], greater than 20%; in the assay with PC-3, greater than 50%; in the assay on SW-620 [4] it was greater than 20%. Further, the results for the IC50 in the assay on HCT-116 [5] and with SW-620 [7] were less than 0.1 µM and less than 0.5 µM, respectively.
Turning to `O=c1c(NCc2ccc(Oc3ccccc3)cc2)c(Nc2cccnc2)c1=O` [SQ-34, 3-(4-Phenoxy-benzylamino)-4-(pyridin-3-ylamino)-cyclobut-3-ene-1,2-dione], the inhibition at 1 µM with A-549 is 0%; with A2780 [1], greater than 20%; in the assay with HCT-116 [2] it was greater than 20%; in the assay on PC-3, greater than 0%; in the assay with SW-620 [4] it was 0%.
